According to ChEMBL document CHEMBL1955809, “Discovery of GS-9256: a novel phosphinic acid derived inhibitor of the hepatitis C virus NS3/4A protease with potent clinical activity” (Bioorg Med Chem Lett, 2012):

Assays:
Hepatitis C virus [1] = test: Inhibition of HCV1b NS3/4A protease; parameters: species or system Hepatitis C virus subtype 1b; conditions: Hepatitis C virus
Hepatitis C virus [2] = test: Antiviral activity against HCV genotype 1b infected in human Huh cells expressing luc gene by replicon assay; type: functional, organism-based, Hepacivirus hominis
[3] = Oral bioavailability in dog at 4 mg/kg; type: ADME, organism-based, Canis lupus familiaris; conditions: in vivo
[4] = Permeability from apical to basolateral side in human Caco2 cells; type: ADME, cell-based; conditions: Caco-2, read-out: permeability
[5] = Permeability from basolateral to apical side in human Caco2 cells; type: ADME, cell-based; conditions: Caco-2, read-out: permeability
[6] = Drug excretion in iv dosed bile-cannulated rat bile assessed as parent compound level after 4 hrs; type: ADME, organism-based; conditions: read-out: Ae
[7] = Half life in dog at 1 mg/kg, iv; type: ADME, organism-based, Canis lupus familiaris; parameters: dose 1 mg/kg, route intravenous; conditions: in vivo
Canis familiaris = test: AUC in dog at 1 mg/kg, iv and 4 mg/kg, po; type: ADME, organism-based, Canis lupus familiaris, Plasma; conditions: in vivo
[8] = Clearance in dog at 1 mg/kg, iv and 4 mg/kg, po; type: ADME, organism-based, Canis lupus familiaris; conditions: in vivo
[9] = Volume of distribution at steady state in dog at 1 mg/kg, iv and 4 mg/kg, po; type: ADME, organism-based, Canis lupus familiaris; conditions: in vivo, read-out: Vdss
[10] = Dissociation constant, pKa of the compound; type: physicochemical

Row | Compound | IC50 (Hepatitis C virus [1]) [nM] | EC50 (Hepatitis C virus [2]) [nM] | bioavailability [3] [%] | Papp A→B [4] [×10⁻⁶ cm/s] | Papp B→A [5] [×10⁻⁶ cm/s] | dose excreted at 4 h [6] [%] | half-life [7] [h] | AUC (Canis familiaris) [µM·h] | clearance [8] [mL/min/kg] | Vd [9] [L/kg] | pKa [10]
1 | COc1ccc2c(O[C@@H]3C[C@H]4C(=O)N[C@]5(P(=O)(O)Cc6c(F)cccc6F)C[C@H]5CCCCCCC[C@H](NC(=O)OC5CCCC5)C(=O)N4C3)cc(-c3csc(NC(C)C)n3)nc2c1Br | 3 | 7 | 4.1 |  |  |  |  |  |  |  | 
2 | C=C[C@@H]1C[C@]1(NC(=O)[C@@H]1C[C@@H](Oc2cc(-c3csc(NC(C)C)n3)nc3cc(OC)ccc23)CN1C(=O)[C@@H](NC(=O)OC1CCCC1)C(C)(C)C)P(=O)(O)Cc1cccc(C)c1 | 8 | 331 |  | 0.64 | 3.5 |  |  |  |  |  | 
3 | C=C[C@@H]1C[C@]1(NC(=O)[C@@H]1C[C@@H](Oc2cc(-c3csc(NC(C)C)n3)nc3cc(OC)ccc23)CN1C(=O)[C@@H](NC(=O)OC1CCCC1)C(C)(C)C)P(=O)(O)Cc1c(C)cccc1C | 63 | 7700 |  | 0.19 | 2.93 |  |  |  |  |  | 
4 | COc1ccc2c(O[C@@H]3C[C@H]4C(=O)N[C@]5(P(=O)(O)Cc6c(F)cccc6F)C[C@H]5CCCCCCC[C@H](NC(=O)OC5CCCC5)C(=O)N4C3)cc(-c3csc(NC(C)C)n3)nc2c1F | 11 | 43 | 6 |  |  |  |  |  |  |  | 
5 | C=C[C@@H]1C[C@]1(NC(=O)[C@@H]1C[C@@H](Oc2cc(-c3csc(NC(C)C)n3)nc3cc(OC)ccc23)CN1C(=O)[C@@H](NC(=O)OC1CCCC1)C(C)(C)C)P(=O)(O)Cc1c(F)cccc1C(F)(F)F | 6 | 340 |  | 0.53 | 6.36 |  |  |  |  |  | 
6 | COc1ccc2c(O[C@@H]3C[C@H]4C(=O)N[C@]5(P(=O)(O)Cc6c(F)cccc6F)C[C@H]5CCCCCCC[C@H](NC(=O)OC5CCCC5)C(=O)N4C3)cc(-c3csc(NC(C)C)n3)nc2c1 | 4 | 10 | 2.9 |  |  |  |  |  |  |  | 
7 | C=C[C@@H]1C[C@]1(NC(=O)[C@@H]1C[C@@H](Oc2cc(-c3csc(NC(C)C)n3)nc3cc(OC)ccc23)CN1C(=O)[C@@H](NC(=O)OC1CCCC1)C(C)(C)C)P(=O)(O)Cc1ccccc1OC | 6 | 48 |  | 0.43 | 6.2 |  |  |  |  |  | 
8 | C=C[C@@H]1C[C@]1(NC(=O)[C@@H]1C[C@@H](Oc2cc(-c3csc(NC(C)C)n3)nc3cc(OC)ccc23)CN1C(=O)[C@@H](NC(=O)OC1CCCC1)C(C)(C)C)P(=O)(O)Cc1ccc(C)cc1 | 15 | 860 |  | 0.69 | 12 |  |  |  |  |  | 
9 | C=C[C@@H]1C[C@]1(NC(=O)[C@@H]1C[C@@H](Oc2cc(-c3csc(NC(C)C)n3)nc3cc(OC)ccc23)CN1C(=O)[C@@H](NC(=O)OC1CCCC1)C(C)(C)C)P(=O)(O)Cc1c(F)cccc1F | 4 | 74 | 8 | 1.22 | 10.6 | > 90 | 1.6 | 3.12 | 6.17 | 0.31 | 2.7
10 | COc1ccc2c(O[C@@H]3C[C@H]4C(=O)N[C@]5(C(=O)O)C[C@H]5/C=C\CCCCC[C@H](NC(=O)OC5CCCC5)C(=O)N4C3)cc(-c3csc(NC(C)C)n3)nc2c1 [CILUPREVIR] | 1 | 1 |  |  |  |  |  |  |  |  | 
